Results on two compounds are retold here after ChEMBL document CHEMBL5518168, “Tumor-homing peptide iRGD-conjugate enhances tumor accumulation of camptothecin for colon cancer therapy” (Eur J Med Chem, 2024).

What is called IC50 is the concentration at which inhibition is half-maximal.

The source made the active and inactive calls. The rule behind the calls is not given here.

Data set [1] in a line: Drug uptake in human SW480 cells assessed as increase in blue fluorescence at 30 uM incubated for 1 hr by DRAQ5 staining based confocal microscopy analysis. The format is ADME, cell-based. As to conditions: sw480, 1 h.
The subject of data set [2] is HT-29. In words: Cytotoxicity against human HT-29 cells assessed as reduction in cell viability at 10 to 50 uM incubated for 48 hrs by MTT assay. The format is functional, cell-based. The following applies: dose 10-50 µM.
Data set [3] relates to HT-29. In words: Cytotoxicity against human HT-29 cells assessed as reduction in cell viability at greater than 0.078 uM incubated for 48 hrs by MTT assay. The format is functional, cell-based. A general note: Tetrazolium dyes change colour on reduction, which living cells bring about.
Data set [4] deals with HT-29. In words: Cytotoxicity against human HT-29 cells assessed as cell viability at 25 uM incubated for 48 hrs by MTT assay. The format is functional. The following applies: read-out: Activity.
The subject of data set [5] is SW480. Put plainly: Cytotoxicity against human SW480 cells assessed as cell viability at 25 uM incubated for 48 hrs by MTT assay. As to conditions: read-out: Activity. The format is functional.
In data set [6] the test system is HT-29. In words: Cytotoxicity against human HT-29 cells assessed as reduction in cell viability incubated for 48 hrs by MTT assay. The class given is functional, cell-based. The following applies: HT-29, 48 h.
In data set [7] the test system is SW480. In words: Cytotoxicity against human SW480 cells assessed as reduction in cell viability incubated for 48 hrs by MTT assay. The class given is functional, cell-based. As to conditions: SW480, 48 h.
For data set [8], the system named is HT-29. Put plainly: Potency index, ratio of CPT IC50 to test compound IC50 for cytotoxicity against human HT-29 cells. The format is functional.
Data set [9] deals with SW480. In words: Potency index, ratio of CPT IC50 to test compound IC50 for cytotoxicity against human SW480 cells. The format is functional.
The test system of data set [10] is THP-1. In words: Cytotoxicity against human THP-1 cells assessed as reduction in cell viability incubated for 48 hrs by MTT assay. As to conditions: thp-1, 48 h. The class given is toxicity, cell-based.
For data set [11], the system named is CCD-18Co. Put plainly: Cytotoxicity against human CCD-18Co cells assessed as reduction in cell viability incubated for 48 hrs by MTT assay. The class given is toxicity, cell-based.
Data set [12] is described as follows: Stability in human plasma assessed as drug hydrolysis after 15 mins by HPLC analysis. The format is ADME, cell-free. As to conditions: read-out: Drug degradation.
Data set [13] in a line: Stability in human plasma assessed as drug hydrolysis after 5 hrs by HPLC analysis. The class given is ADME, cell-free. As to conditions: read-out: Drug degradation.
Data set [14] in a line: Stability in human plasma assessed as parent compound remaining after 18 hrs by HPLC analysis. The class given is ADME, cell-free. The following applies: read-out: Stability.
Data set [15] relates to SW480. In words: Antitumor activity against human SW480 cells xenografted in BALB/c mouse assessed as increase in body weight at 0.1 mg/kg, iv administered once every 2 days and measured after 12 days. The format is functional, organism-based. As to conditions: time 12.0 day. In general terms: A xenograft is tissue or cells of one species grown in another, often human tumour cells in immunodeficient mice.

The subject of data set [16] is SW480. In words: Antitumor activity against human SW480 cells xenografted in BALB/c mouse assessed as reduction in tumor volume at 0.1 mg/kg, iv administered once every 2 days and measured on day 8. As to conditions: time 8.0 day. The class given is functional, organism-based.
The subject of data set [17] is SW480. In words: Antitumor activity against human SW480 cells xenografted in BALB/c mouse assessed as reduction in tumor volume at 0.1 mg/kg, iv administered once every 2 days and measured on day 18. The following applies: time 18 day. More on the design: scale not given: the % may be the effect or the level left. The format is functional.
In data set [18] the test system is SW480. In words: Antitumor activity against human SW480 cells xenografted in BALB/c mouse assessed as tumor inhibition rate at 0.1 mg/kg, iv administered once every 2 days for 18 days. The class given is functional. Also on record: scale not given: the % may be the effect or the level left. The following applies: time 18 day.
Data set [19] has as its system SW480. Put plainly: Antitumor activity against human SW480 cells xenografted in BALB/c mouse assessed as tumor burden at 0.1 mg/kg, iv administered once every 2 days for 18 days (reference value: 1.88%). The format is functional. The following applies: time 18 day.
Data set [20] concerns SW480. Put plainly: Antitumor activity against human SW480 cells xenografted in BALB/c mouse assessed as tumor growth inhibition at 0.1 mg/kg, iv administered once every 2 days for 18 days. The format is functional, organism-based. The following applies: time 18.0 day.
Data set [21] concerns SW480. Put plainly: Antitumor activity against human SW480 cells xenografted in BALB/c mouse assessed as decrease in Ki67 expression at 0.1 mg/kg, iv administered once every 2 days for 18 days by immunohistochemical analysis. The class given is functional, organism-based. As to conditions: time 18.0 day.
Data set [22] is described as follows: Drug distribution in BALB/c mouse tumor xenografted with human A549 cells at 22.23 mg/kg, iv measured after 24 hrs by HPLC analysis. As to conditions: in vivo. The class given is ADME, organism-based, Neoplasm.
The nature of data set [23]: Drug distribution in BALB/c mouse spleen xenografted with human A549 cells at 22.23 mg/kg, iv measured after 24 hrs by HPLC analysis. The class given is ADME, organism-based. The following applies: in vivo.
The nature of data set [24]: Drug distribution in BALB/c mouse heart xenografted with human A549 cells at 22.23 mg/kg, iv measured after 24 hrs by HPLC analysis. The following applies: in vivo. The format is ADME, organism-based.
Data set [25] can be described thus: Drug distribution in BALB/c mouse tumor xenografted with human A549 cells at 22.23 mg/kg, sc measured after 24 hrs by HPLC analysis. The following applies: in vivo. The format is ADME, organism-based, Neoplasm.
A short description of data set [26]: Drug distribution in BALB/c mouse lung xenografted with human A549 cells at 22.23 mg/kg, sc measured after 24 hrs by HPLC analysis. The format is ADME, organism-based. The following applies: in vivo.
Data set [27] can be described thus: Drug distribution in BALB/c mouse heart xenografted with human A549 cells at 22.23 mg/kg, sc measured after 24 hrs by HPLC analysis. The format is ADME, organism-based. As to conditions: in vivo.
In data set [28] the test system is SW480. Put plainly: Antitumor activity against human SW480 cells xenografted in BALB/c mouse assessed as fold decrease in cell viability by measuring Ki67 positive cells at 0.1 mg/kg, iv administered once every 2 days for 18 days by immunohistochemical analysis relative to CPT. The class given is functional. As to conditions: time 18 day.
Data set [29] concerns SW480. In words: Antitumor activity against human SW480 cells xenografted in BALB/c mouse assessed as fold decrease in cell viability by measuring Ki67 positive cells at 0.1 mg/kg, iv administered once every 2 days for 18 days by immunohistochemical analysis relative to control. As to conditions: time 18 day. The class given is functional.
Data set [30] deals with SW480. In words: Antitumor activity against human SW480 cells xenografted in BALB/c mouse assessed as increase in body weight at 0.019 mg/kg, iv administered once every 2 days and measured after 12 days. The format is functional, organism-based. The following applies: time 12.0 day.
The subject of data set [31] is SW480. Put plainly: Antitumor activity against human SW480 cells xenografted in BALB/c mouse assessed as reduction in tumor volume at 0.019 mg/kg, iv administered once every 2 days and measured on day 18. The format is functional. Also on record: scale not given: the % may be the effect or the level left. The following applies: time 18 day.
Data set [32] concerns SW480. In words: Antitumor activity against human SW480 cells xenografted in BALB/c mouse assessed as tumor inhibition rate at 0.019 mg/kg, iv administered once every 2 days for 18 days. The following applies: time 18 day. More on the design: scale not given: the % may be the effect or the level left. The class given is functional.
Data set [33] concerns SW480. Put plainly: Antitumor activity against human SW480 cells xenografted in BALB/c mouse assessed as tumor burden at 0.019 mg/kg, iv administered once every 2 days for 18 days (reference value: 1.88%). The format is functional. The following applies: time 18 day.
A short description of data set [34]: Drug distribution in BALB/c mouse spleen xenografted with human A549 cells at 2.5 mg/kg, iv measured after 24 hrs by HPLC analysis. The format is ADME, organism-based. As to conditions: in vivo.
Data set [35] is described as follows: Drug distribution in BALB/c mouse lung xenografted with human A549 cells at 2.5 mg/kg, iv measured after 24 hrs by HPLC analysis. As to conditions: in vivo. The class given is ADME, organism-based.
Data set [36] in a line: Drug distribution in BALB/c mouse heart xenografted with human A549 cells at 2.5 mg/kg, iv measured after 24 hrs by HPLC analysis. The format is ADME, organism-based. The following applies: in vivo.
A short description of data set [37]: Drug distribution in BALB/c mouse spleen xenografted with human A549 cells at 2.5 mg/kg, sc measured after 24 hrs by HPLC analysis. The format is ADME, organism-based. The following applies: in vivo.
A short description of data set [38]: Drug distribution in BALB/c mouse lung xenografted with human A549 cells at 2.5 mg/kg, sc measured after 24 hrs by HPLC analysis. The format is ADME, organism-based. As to conditions: in vivo.
Data set [39] is described as follows: Drug distribution in BALB/c mouse heart xenografted with human A549 cells at 2.5 mg/kg, sc measured after 24 hrs by HPLC analysis. The format is ADME, organism-based. As to conditions: in vivo.

`CC[C@@]1(OC(=O)CCCOCCOCCONC(=O)CCN2C(=O)CC(SC[C@H](NC(C)=O)C(=O)N[C@H]3CSSC[C@@H](C(=O)O)NC(=O)[C@H](CC(=O)O)NC(=O)[C@@H]4CCCN4C(=O)CNC(=O)[C@H](CCCCN)NC(=O)[C@H](CC(=O)O)NC(=O)CNC(=O)[C@H](CCCNC(=N)N)NC3=O)C2=O)C(=O)OCc2c1cc1n(c2=O)Cc2cc3ccccc3nc2-1` (stereo partly drawn): the Drug uptake entry in data set [1], in data set [22], in data set [23], in data set [24], in data set [25] and in data set [26] was “Active” in each case. Besides, in data set [27], the Drug uptake entry is “Active”. The result in [2], in data set [3], in [15], in [16], in data set [20] and in data set [21] was Active. Further, the viability at 25 µM came to 16.3% in data set [4] and 22.3% in data set [5]. Besides, the figures for the concentration for half-maximal inhibition (IC50) in data set [6] and in data set [7] were 0.35 µM and 0.32 µM, respectively. Also, the “Ratio IC50” value is recorded as 6.7 in data set [8] and 24 in data set [9]. Also, the Activity entry in [10] was “Non-Toxic”; in data set [11], “Non-Toxic”; in data set [17], 39.7%; in data set [18], 75%; in data set [19], 1.44%. Also, the metabolised at 0.25 h in data set [12] came to 1.4%. Moreover, the metabolised at 5 h in [13] stood at 15.5%. In data set [14], the remaining at 18 h came out at 76.4%. Also, the “fold change (FC)” value stood at 6.4 in data set [28] and 10.5 in data set [29].

For `CC[C@@]1(O)C(=O)OCc2c1cc1n(c2=O)Cc2cc3ccccc3nc2-1` [CAMPTOTHECIN], the viability at 25 µM came out at 32.4% in data set [4] and 29.5% in data set [5]. The half-inhibitory concentration (IC50) in data set [6] stood at 2.35 µM; in [7], 8.56 µM. Further, the result in [30] was inactive. Moreover, the Activity amounted to 6.8% in data set [31], 56% in data set [32] and 1.59% in data set [33]. For the same compound, the Drug uptake entry in data set [34], in [35], in [36], in [37], in data set [38] and in data set [39] was “Active” in each case.
